US20050214336A1, “Parasite control in animals” (priority 2002, published 2005)

Tested on: Musca domestica first instars
Test: Development of Musca domestica larvae on cattle dung following oral treatment of the animal (feed-through test)
Assay type: in vivo
Details: cattle 300 kg, 3 g active compound in capsule on three consecutive days, dung samples
From the text: Test for the development of Musca domestica larvae on cattle dung following oral treatment of the animal with active-compound-comprising formulation (feed-through test) Cattle 300 kg in weight are fed on three consecutive days with in each case 3 g of active compound in a capsule formulation. Dung samples of treated animals are populated with Musca domestica first instars, and the development into adult flies was monitored in comparison with the development of dung samples of an untreated control. Those substances which reliably prevent the development of adults over a period of four weeks are assessed as active.

In the case of `CCC(C)(C)C(=O)OC1=C(c2ccc(Cl)cc2Cl)C(=O)OC12CCCCC2` [compound A, 2,2-dimethyl-, 3-(2,4-dichlorophenyl)-2-oxo-1-oxaspiro[4,5]dec-3-en-4-yl-butanoate], the “long-term activity (prevention of development into adult flies)” value (after day 3, long-term (period of four weeks)) is reported as 100% and the “activity (prevention of development into adult flies)” value (up to day 3 after the treatment) is reported as 50%.
